Data from patent publication US11939361B2, “Compositions of peptide inhibitors of Interleukin-23 receptor” (Janssen Pharmaceutica NV, priority 2020, dated 2024).

Key:
[1] = test system: rat trinitrobenzenesulfonic acid (TNBS)-induced colitis model; assay: Rat TNBS-induced colitis model, efficacy; assay type: in vivo, Sprague-Dawley rats
Excerpt: Intracolonic TNBS instillation in Sprague-Dawley rats induces colonic inflammation driven in part by IL-23/IL-23R signaling (Cheng X, Taranath R, Mattheakis L, Bhandari A, Liu D. The biomarker profile of PTG-200, an oral peptide antagonist of IL-23 receptor, tracks with efficacy in a preclinical model of IBD. J Crohns Colitis. AGA Abstracts, 2017). The TNBS rat model therefore provides a measure of the local GI effects of SEQ ID NO: 1 on IL-23/IL-23R signaling.
The peptide of SEQ ID NO: 1 was evaluated in the rat TNBS model with oral dosing only, three times a day (0.03, 0.1, 0.3, 1, 3, 10, mg/kg/day), in three independent rat TNBS experiments. In all studies, the peptide of SEQ ID NO: 1 was dosed starting 2 days prior to TNBS induction through day 6, with euthanasia scheduled on day 7.
Disease severity resulting from TNBS can be assessed by qualitative scoring of the formation of strictures, adhesions, ulceration, and increase in wall thickness as described previously. […] Based on this qualitative scoring, the peptide of SEQ ID NO: 1 at 0.1 mg/kg/day was considered to be the minimally efficacious dose for colonic score (FIG. 13).
Data from 3 different studies were combined (represented by shapes of the symbols at each dose level: study 1 (Δ), study 2 (♦), study 3 (∘); box at interquartile range, bars at minima/maxima). The colons were scored on the following parameters: adhesion (0-2), stricture (0-3), ulcer (0-5), and wall thickness (0-2) for a total sum component score range of 0-12. The colon score was reduced by treatment with the peptide of SEQ ID NO: 1 at doses of […] (ns=not significant, * p<0.05, *** p<0.001, **** p<0.0001).

[2] = test system: IL-23 induced expression of IL-17A, IL-17F, and IL-22; assay: Rat skin gene expression downstream of intradermal IL-23; assay type: in vivo, Sprague-Dawley rats
Experimental: Ear inflammation was induced in Sprague-Dawley rats by daily intradermal injection of recombinant rat IL-23 on study days 0-3. Treatment with the peptide of SEQ ID NO: 1 (dose response by oral gavage; 1, 3, 10, 30, 100, and 300 mg/kg, twice a day) was initiated prophylactically starting one day prior to and continued through day 3 after induction of inflammation. All rats were humanely euthanized on day 4. An anti-IL-23 monoclonal antibody (administered intraperitoneally on days −1 and day 3) was included in all studies as a positive control and comparator.
Test article was dissolved into phosphate buffer at the appropriate concentrations and aliquoted for each dose and stored at 4° C. Retentions of each dose formulation were obtained after the initial preparation and following the final dose on day 3 into Eppendorf tubes and stored at −80° C. for bioanalysis of test article by LCMS.
Recombinant rat IL-23 was diluted with PBS to a concentration of 75 μg/mL, divided into 2.0 mL aliquots, and stored at −80° C. Daily from day 0 through day 3, rats were anesthetized with isoflurane and IL-23 was intradermally injected (i.d.) into the right ear (1.5 μg in a volume of 20 μL). In the control group, 20 μL of PBS was injected.
Starting the morning prior to IL-23 injection through the evening of day 3, rats were dosed with either vehicle (phosphate buffer) or the peptide of SEQ ID NO: 1 compound twice daily (approximately 10 hours apart between doses during the day) by oral gavage (p.o.) in a volume of 5 mL/kg. In one experiment, the peptide of SEQ ID NO: 1 was also administered subcutaneously (s.c.) in a volume of 5 mL/kg.
Anti-IL-23p19 antibody or isotype antibody was administered via intraperitoneal injection (i.p.) in a volume of 5 mL/kg on days −1 and 3.
At the end of the study, four days after induction with IL-23 (approximately 16 hours after the evening dose on day 3), animals were euthanized by CO2 asphyxiation. The ear tissue was weighed, snap frozen, and stored at −80° C. for gene expression analysis of inflammatory genes (IL-22, IL-17A, IL-17F, TNF). […]

Question: How did the TNBS-induced weight loss ([1]; 0.03, 0.1, 0.3, 1, 3, and 10 mg/kg/day, all 3 studies) turn out when CC(=O)NCCCC[C@@H]1NC(=O)[C@H](Cc2c[nH]c3c(C)cccc23)NC(=O)[C@H]([C@@H](C)O)NC(=O)[C@H](CC(N)=O)NC(=O)[C@@H](NC(C)=O)C(C)(C)SSC(C)(C)[C@@H](C(=O)N[C@@H](Cc2ccc(OCCN)cc2)C(=O)N[C@@H](Cc2ccc3ccccc3c2)C(=O)NC2(C(=O)N[C@@H](CCC(=O)O)C(=O)N[C@@H](CC(N)=O)C(=O)N[C@@H](Cc3cccnc3)C(=O)N(C)CC(N)=O)CCOCC2)NC1=O [SEQ ID NO: 1, Ac-[Pen]*—N-T-[W(7-Me)]-[Lys(Ac)]-[Pen]*-Phe[4-(2-aminoethoxy)]-[2-Nal]-[THP]-E-N-[3-Pal]-Sarc-NH2] was run?
Answer: prevented and reversed

Question: What about the “minimally efficacious dose, body weight” value ([1]; day 7 as the study endpoint) of the same molecule?
Answer: 0.3 mg/kg/day

Question: And the “minimal efficacious dose, TNBS-induced colitis model (summary)” value ([1]; rat, in vivo)?
Answer: 0.3 mg/kg/day

Question: What about the “minimally efficacious dose, colonic score” value ([1]; rat, in vivo) of the same molecule?
Answer: 0.1 mg/kg/day

Question: What about the “median IL-17A expression in skin” value ([2]; all tested doses (1-300 mg/kg b.i.d., oral)) of the same molecule?
Answer: reduced

Question: And the “reduction of median IL-17A expression in skin” value ([2]; doses of 10 mg/kg (b.i.d.) or higher)?
Answer: comparable degree as anti-IL-23 antibody

Question: What about the “IL-23 induced expression of IL-17A, IL-17F, and IL-22 in skin” value ([2]; oral, 1-300 mg/kg b.i.d., days -1 to 3, dose dependent) of the same molecule?
Answer: attenuated
